# Patent US12128028B2, “Heterocyclic sulfonamide derivatives and pharmaceutical uses thereof” (METRION BIOSCIENCES LIMITED, priority 2018, dated 2024)
# Target: human Kv1.3 (Homo sapiens (Human), UniProt P22001)
# Assay: Kv1.3 potency evaluation, automated patch clamp electrophysiology (QPatch HT) in CHO-Kv1.3 cells
# Format: cell-based
# Conditions: whole-cell QPatch HT, % inhibition of charge, step to +30 mV, four concentrations, N≥3 cells, read-out: hKv1.3 IC50
# Summary of the method: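 Automated whole-cell patch clamp in CHO cells stably expressing human Kv1.3; steps from −80 to +30 mV (500 ms) at 0.067 Hz. Four cumulative concentrations after vehicle (0.1-0.3% DMSO); charge inhibition vs vehicle fitted by four-parameter logistic for IC50, N≥3 cells.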
# human Kv1.3, sequence (P22001 whole entry): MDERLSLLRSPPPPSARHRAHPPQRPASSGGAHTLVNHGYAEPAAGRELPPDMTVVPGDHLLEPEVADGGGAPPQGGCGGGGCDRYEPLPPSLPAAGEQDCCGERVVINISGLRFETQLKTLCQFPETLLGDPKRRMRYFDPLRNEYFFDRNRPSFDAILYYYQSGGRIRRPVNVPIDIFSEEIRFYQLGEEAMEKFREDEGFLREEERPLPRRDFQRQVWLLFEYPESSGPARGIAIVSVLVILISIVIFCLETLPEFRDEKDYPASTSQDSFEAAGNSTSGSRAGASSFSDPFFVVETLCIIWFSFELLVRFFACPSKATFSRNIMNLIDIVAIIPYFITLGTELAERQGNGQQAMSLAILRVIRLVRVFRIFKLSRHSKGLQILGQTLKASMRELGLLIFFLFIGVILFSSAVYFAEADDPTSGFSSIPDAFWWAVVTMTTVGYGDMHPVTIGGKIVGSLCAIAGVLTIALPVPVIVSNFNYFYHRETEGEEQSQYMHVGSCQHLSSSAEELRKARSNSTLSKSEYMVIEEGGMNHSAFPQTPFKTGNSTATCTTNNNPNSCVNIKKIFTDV
row,Compound,IC50 [µM]
1,CC1(C)N=C(C23CC(N(Cc4ccc(Cl)c(F)c4)S(=O)(=O)c4ccccc4)(C2)C3)N[C@H]1C(=O)NCC1CC1 (mixture of isomers) [Example 56],0.05
2,CCCS(=O)(=O)N(Cc1ccc(Cl)c(Cl)c1)C12CC(C3=NC(C)(C)[C@H](C(=O)N4C5CCC4CC(F)(F)C5)N3)(C1)C2 (mixture of isomers) [Example 190],0.113
3,CC1(C)N=C(C23CC(N(Cc4ccc(Cl)c(F)c4)S(=O)(=O)c4ccccc4)(C2)C3)N[C@H]1C(=O)NCC1CC1(F)F (mixture of isomers) [Example 11],0.028
4,C[C@@H](NC(=O)[C@@H]1NC(C23CC(N(Cc4ccc(Cl)c(F)c4)S(=O)(=O)c4ccccc4)(C2)C3)=NC1(C)C)C(F)(F)F (mixture of isomers) [Example 34],0.047
5,CC1(C)N=C(C23CC(N(Cc4ccc(Cl)c(F)c4)S(=O)(=O)c4ccccc4)(C2)C3)N[C@H]1C(=O)NCC1CC(F)(F)C1 (mixture of isomers) [Example 63],0.052
6,CC1(C)N=C(C23CC(N(Cc4ccc(Cl)c(F)c4)S(=O)(=O)c4ccccc4)(C2)C3)N[C@H]1C(=O)NCCC1CC1 (mixture of isomers) [Example 20],0.037
7,CC1(C)N=C(C23CC(N(Cc4ccc(Cl)c(Cl)c4)S(=O)(=O)c4ccccc4)(C2)C3)N[C@H]1C(=O)N1CCC(F)(F)CC1 (mixture of isomers) [Example 86],0.062
8,CC1(C)N=C(C23CC(N(Cc4ccc(Cl)cc4)S(=O)(=O)c4ccccc4)(C2)C3)N[C@H]1C(=O)NC12CC(C1)C2 (mixture of isomers) [Example 12],0.03
9,CC1(C)N=C(C23CC(N(Cc4ccc(Cl)cc4)S(=O)(=O)c4ccn(C5CC5)n4)(C2)C3)N[C@H]1C(=O)NCCC(F)(F)F (mixture of isomers) [Example 90],0.064
10,CCCS(=O)(=O)N(Cc1ccc(Cl)c(Cl)c1)C12CC(C3=NC(C)(C)[C@H](C(=O)NCC(C)(C)C(F)(F)F)N3)(C1)C2 (mixture of isomers) [Example 46],0.047
11,CC1(C)N=C(C23CC(N(Cc4ccc(Cl)c(Cl)c4)S(=O)(=O)CCCF)(C2)C3)N[C@H]1C(=O)NCC1CC(F)(F)C1 (mixture of isomers) [Example 132],0.078
12,CN(CC(C)(C)F)C(=O)[C@@H]1NC(C23CC(N(Cc4ccc(Cl)c(Cl)c4)S(=O)(=O)c4ccccc4)(C2)C3)=NC1(C)C (mixture of isomers) [Example 58],0.05
13,CC1(C)N=C(C23CC(N(Cc4cccc(F)c4)S(=O)(=O)c4ccccc4)(C2)C3)N[C@H]1C(=O)NCCC(F)(F)F (mixture of isomers) [Example 40],0.046
14,CN(C(=O)[C@@H]1NC(C23CC(N(Cc4ccc(Cl)c(F)c4)S(=O)(=O)c4ccccc4)(C2)C3)=NC1(C)C)C1CC(C(F)F)C1 (mixture of isomers) [Example 78],0.06
15,CC1(C)N=C(C23CC(N(Cc4ccc(Cl)c(F)c4)S(=O)(=O)c4ccccc4)(C2)C3)N[C@H]1C(=O)NCC(F)(F)C(F)(F)F (mixture of isomers) [Example 126],0.076

# Further lines, results first:
row,IC50 [µM],Compound
1,0.199,O=C(NCC1CCC1)C1NC(C23CC(N(Cc4ccc(C(F)(F)F)cc4)S(=O)(=O)c4ccc(F)cc4)(C2)C3)=NC12CCC2 (centres unmarked) [Example 229]
2,4.08,C[C@]1(C(=O)Nc2ccccc2)CN=C(C23CC(N(Cc4ccc(C(F)(F)F)cc4)S(=O)(=O)c4ccc(F)cc4)(C2)C3)N1 (mixture of isomers) [Example 293]
3,0.169,CC1(C)N=C(C23CC(N(Cc4ccc(C(F)(F)F)cc4)S(=O)(=O)c4ccccc4)(C2)C3)NC1C(=O)NCCC(F)(F)F (centres unmarked) [Example 220]
4,0.485,C[C@]1(C(=O)NCc2ccccc2)CN=C(C23CC(N(Cc4ccc(C(F)(F)F)cc4)S(=O)(=O)c4ccc(F)cc4)(C2)C3)N1 (mixture of isomers) [Example 270]
5,0.129,CC1(C)N=C(C23CC(N(Cc4ccc(Cl)c(F)c4)S(=O)(=O)c4ccccc4)(C2)C3)N[C@H]1C(=O)N1CCC(F)(F)C(C)(C)C1 (mixture of isomers) [Example 200]
6,0.23,O=C(NCC1CCC1)C1NC(C23CC(N(Cc4ccc(C(F)(F)F)cc4)S(=O)(=O)c4ccc(F)cc4)(C2)C3)=NC12CC2 (centres unmarked) [Example 239]
7,0.102,CC1(C)N=C(C23CC(N(Cc4ccc(Cl)c(F)c4)S(=O)(=O)c4ccccc4)(C2)C3)N[C@H]1C(=O)N1CC[C@H](C(F)(F)F)C1 (mixture of isomers) [Example 171]
8,0.787,CC(C)CC1(C(=O)NCC2CCC2)CN=C(C23CC(N(Cc4ccc(C(F)(F)F)cc4)S(=O)(=O)c4ccc(F)cc4)(C2)C3)N1 (centres unmarked) [Example 284]
9,0.099,CC1(C)N=C(C23CC(N(Cc4ccc(Cl)c(Cl)c4)S(=O)(=O)c4ccccc4)(C2)C3)N[C@H]1C(=O)N1CCC(F)(F)C2(CC2)C1 (mixture of isomers) [Example 167]
10,0.135,CC1(C)N=C(C23CC(N(Cc4ccc(Cl)c(Cl)c4)S(=O)(=O)CCC(F)F)(C2)C3)N[C@H]1C(=O)NC1CC(C(F)F)C1 (mixture of isomers) [Example 204]
11,0.103,CC1(C)N=C(C23CC(N(Cc4ccc(Cl)c(F)c4)S(=O)(=O)c4ccccc4)(C2)C3)N[C@H]1C(=O)N1CC(C(F)(F)F)C1 (mixture of isomers) [Example 172]
12,0.185,CC1(C)N=C(C23CC(N(Cc4ccc(Cl)c(Cl)c4)S(=O)(=O)c4ccccc4O)(C2)C3)N[C@H]1C(=O)NCCC(F)(F)F (mixture of isomers) [Example 226]
13,0.088,CN(CCC(F)(F)F)C(=O)[C@@H]1NC(C23CC(N(Cc4ccc(Cl)c(Cl)c4)S(=O)(=O)c4ccccc4)(C2)C3)=NC1(C)C (mixture of isomers) [Example 147]
14,0.524,CC1(C)N=C(C23CC(N(Cc4ccc(Cl)cc4)S(=O)(=O)C4CCOCC4)(C2)C3)N[C@H]1C(=O)NCCC(F)(F)F (mixture of isomers) [Example 272]
15,0.177,CC1(C)N=C(C23CC(N(Cc4ccc(Cl)c(C#N)c4)S(=O)(=O)c4ccccc4)(C2)C3)N[C@H]1C(=O)NCCC(F)(F)F (mixture of isomers) [Example 223]
16,0.115,CC1(C)N=C(C23CC(N(Cc4ccc(C(F)(F)F)cc4)S(=O)(=O)c4ccc(F)cc4)(C2)C3)NC1C(=O)NCCC(F)(F)F (centres unmarked) [Example 193]
17,0.37,C[C@]1(C(=O)NCC(F)(F)F)CN=C(C23CC(N(Cc4ccc(C(F)(F)F)cc4)S(=O)(=O)c4ccc(F)cc4)(C2)C3)N1 (mixture of isomers) [Example 260]
